According to ChEMBL document CHEMBL4507327 (2021):
pIC50: −log10 of the molar value.

Key:
[1] = target: Serine/threonine-protein kinase VRK2 (Homo sapiens, UniProt Q86Y07); assay: VRK2(VRK2LGRI) Takeda global kinase panel
Rhodopsin kinase GRK1 = Rhodopsin kinase GRK1 (Homo sapiens, UniProt Q15835); assay: RHODK [GRK1(GRK1LGA1)] Takeda global kinase panel
[2] = target: Serine/threonine-protein kinase MRCK alpha (Homo sapiens, UniProt Q5VT25); assay: MRCKalpha(CD4ALGY1) Takeda global kinase panel
[3] = target: Tyrosine-protein kinase Fer (Homo sapiens, UniProt P16591); assay: Fer(FER1LGY1) Takeda global kinase panel
[4] = target: Serine/threonine-protein kinase MARK2 (Homo sapiens, UniProt Q7KZI7); assay: MARK2(MAR2LGY1) Takeda global kinase panel
[5] = target: Cyclin-dependent kinase 4 (Homo sapiens, UniProt P11802); assay: CDK4(CDK4CGS1) Takeda global kinase panel
[6] = target: Serine/threonine-protein kinase D1 (Homo sapiens, UniProt Q15139); assay: PKD1(PRD1LHY1) Takeda global kinase panel
[7] = target: Serine/threonine-protein kinase BRSK1 (Homo sapiens, UniProt Q8TDC3); assay: BRSK1(BRS1LGA1) Takeda global kinase panel
Chain of Serine/threonine-protein kinase BRSK1 (Q8TDC3 whole entry): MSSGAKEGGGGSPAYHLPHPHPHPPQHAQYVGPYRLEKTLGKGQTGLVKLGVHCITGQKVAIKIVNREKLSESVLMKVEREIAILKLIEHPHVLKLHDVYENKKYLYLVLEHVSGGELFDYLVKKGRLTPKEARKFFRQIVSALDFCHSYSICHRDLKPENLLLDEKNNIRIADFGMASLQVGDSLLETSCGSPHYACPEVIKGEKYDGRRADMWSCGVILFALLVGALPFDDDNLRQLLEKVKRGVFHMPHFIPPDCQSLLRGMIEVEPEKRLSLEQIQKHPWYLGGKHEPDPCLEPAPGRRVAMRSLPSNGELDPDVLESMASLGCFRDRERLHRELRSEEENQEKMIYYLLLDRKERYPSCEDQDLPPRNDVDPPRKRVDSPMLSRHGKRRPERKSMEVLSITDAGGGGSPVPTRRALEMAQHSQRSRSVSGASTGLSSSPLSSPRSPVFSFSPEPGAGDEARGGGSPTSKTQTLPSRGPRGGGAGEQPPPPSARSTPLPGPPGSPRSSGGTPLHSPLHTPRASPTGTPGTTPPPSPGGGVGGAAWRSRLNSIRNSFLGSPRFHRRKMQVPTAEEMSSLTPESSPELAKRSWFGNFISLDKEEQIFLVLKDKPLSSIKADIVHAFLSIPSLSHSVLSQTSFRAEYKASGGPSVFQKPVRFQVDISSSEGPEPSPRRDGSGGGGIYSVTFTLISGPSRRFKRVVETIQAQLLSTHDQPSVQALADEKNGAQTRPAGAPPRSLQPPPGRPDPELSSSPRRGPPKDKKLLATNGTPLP

[8] = target: Serine/threonine-protein kinase D2 (Homo sapiens, UniProt Q9BZL6); assay: PKD2(PRD2LHY1) Takeda global kinase panel
[9] = target: Tyrosine-protein kinase Fgr (Homo sapiens, UniProt P09769); assay: Fgr(FGR1LGF1) Takeda global kinase panel
Chain of Tyrosine-protein kinase Fgr (P09769 whole entry): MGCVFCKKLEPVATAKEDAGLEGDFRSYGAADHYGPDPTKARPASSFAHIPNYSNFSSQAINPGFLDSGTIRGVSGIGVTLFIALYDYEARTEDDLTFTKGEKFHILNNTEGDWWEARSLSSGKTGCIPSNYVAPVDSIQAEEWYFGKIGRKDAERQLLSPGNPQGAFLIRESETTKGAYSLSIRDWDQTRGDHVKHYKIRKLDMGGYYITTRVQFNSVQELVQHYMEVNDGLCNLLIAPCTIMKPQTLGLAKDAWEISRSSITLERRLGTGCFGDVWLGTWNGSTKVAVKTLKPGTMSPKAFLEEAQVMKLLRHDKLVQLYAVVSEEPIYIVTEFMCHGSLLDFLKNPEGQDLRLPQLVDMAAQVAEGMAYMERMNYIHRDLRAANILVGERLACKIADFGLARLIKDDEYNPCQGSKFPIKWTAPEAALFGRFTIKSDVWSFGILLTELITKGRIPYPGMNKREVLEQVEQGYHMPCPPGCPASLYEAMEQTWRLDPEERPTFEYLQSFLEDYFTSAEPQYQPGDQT

[10] = target: Serine/threonine-protein kinase SIK3 (Homo sapiens, UniProt Q9Y2K2); assay: QSK(SIK3LGP1) Takeda global kinase panel
[11] = target: 5-hydroxytryptamine receptor 2B (Homo sapiens) (UniProt P41595); details: Compound concentration 10.0 uM
[12] = target: T1, 5-hydroxytryptamine receptor 1A (Homo sapiens) (UniProt P08908); details: Compound concentration 10.0 uM
T1 sequence (whole entry): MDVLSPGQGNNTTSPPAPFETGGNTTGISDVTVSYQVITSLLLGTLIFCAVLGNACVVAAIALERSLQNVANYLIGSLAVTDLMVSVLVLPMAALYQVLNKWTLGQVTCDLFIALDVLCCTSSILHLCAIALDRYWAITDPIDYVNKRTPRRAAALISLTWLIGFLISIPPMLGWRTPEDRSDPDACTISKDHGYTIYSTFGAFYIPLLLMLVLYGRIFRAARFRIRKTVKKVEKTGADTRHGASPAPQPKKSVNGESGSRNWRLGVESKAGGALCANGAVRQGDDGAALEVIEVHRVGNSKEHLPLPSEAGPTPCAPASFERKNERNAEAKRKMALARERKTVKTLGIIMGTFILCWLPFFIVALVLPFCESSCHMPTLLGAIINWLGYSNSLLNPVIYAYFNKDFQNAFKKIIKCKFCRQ

[13] = target: Adenosine receptor A3 (Homo sapiens) (UniProt P0DMS8); details: Compound concentration 10.0 uM
Myosin-IIIb = Myosin-IIIb (Homo sapiens, UniProt Q8WXR4); assay: MYO3B(MY3BLGA1) Takeda global kinase panel
[14] = target: NT-3 growth factor receptor (Homo sapiens, UniProt Q16288); assay: TRKC(NTR3LGN1) Takeda global kinase panel
[15] = target: Serine/threonine-protein kinase 32A (Homo sapiens, UniProt Q8WU08); assay: YANK1(S32APHY1) Takeda global kinase panel
[16] = target: Serine/threonine-protein kinase TBK1 (Homo sapiens, UniProt Q9UHD2); assay: TBK1(TBK1CGF1) Takeda global kinase panel
[17] = target: Casein kinase I isoform gamma-3 (Homo sapiens, UniProt Q9Y6M4); assay: CK1gamma3(C1G3LGI5) Takeda global kinase panel
[18] = target: Alpha-1B adrenergic receptor (Homo sapiens) (UniProt P35368); assay: Adrenergic alpha1B Eurofins-Panlabs radioligand binding assay; design: ligand concentration 0.2 nM; details: Compound concentration 10.0 uM
SRSF protein kinase 1 = SRSF protein kinase 1 (Homo sapiens, UniProt Q96SB4); assay: SRPK1(SRP1IHRL) Takeda global kinase panel
[19] = target: Phosphorylase b kinase gamma catalytic chain, skeletal muscle/heart isoform (Homo sapiens, UniProt Q16816); assay: PhKgamma1(PHG1LHY1) Takeda global kinase panel
[20] = target: TRAF2 and NCK-interacting protein kinase (Homo sapiens, UniProt Q9UKE5); assay: TNIK [ZC2(TNIKLGF1)] Takeda global kinase panel
[21] = target: Voltage-dependent N-type calcium channel subunit alpha-1B (Homo sapiens) (UniProt Q00975); assay: Inhibition of Calcium Channel N-Type at 10 µM in the Eurofins-Panlabs radioligand binding assay (Eurofins_assay_216000); details: Rattus norvegicus; Compound concentration 10.0 uM
[22] = target: Bone morphogenetic protein receptor type-2 (Homo sapiens, UniProt Q13873); assay: BMPR2(BMR2LGN1) Takeda global kinase panel
Chain of Bone morphogenetic protein receptor type-2 (Q13873 whole entry): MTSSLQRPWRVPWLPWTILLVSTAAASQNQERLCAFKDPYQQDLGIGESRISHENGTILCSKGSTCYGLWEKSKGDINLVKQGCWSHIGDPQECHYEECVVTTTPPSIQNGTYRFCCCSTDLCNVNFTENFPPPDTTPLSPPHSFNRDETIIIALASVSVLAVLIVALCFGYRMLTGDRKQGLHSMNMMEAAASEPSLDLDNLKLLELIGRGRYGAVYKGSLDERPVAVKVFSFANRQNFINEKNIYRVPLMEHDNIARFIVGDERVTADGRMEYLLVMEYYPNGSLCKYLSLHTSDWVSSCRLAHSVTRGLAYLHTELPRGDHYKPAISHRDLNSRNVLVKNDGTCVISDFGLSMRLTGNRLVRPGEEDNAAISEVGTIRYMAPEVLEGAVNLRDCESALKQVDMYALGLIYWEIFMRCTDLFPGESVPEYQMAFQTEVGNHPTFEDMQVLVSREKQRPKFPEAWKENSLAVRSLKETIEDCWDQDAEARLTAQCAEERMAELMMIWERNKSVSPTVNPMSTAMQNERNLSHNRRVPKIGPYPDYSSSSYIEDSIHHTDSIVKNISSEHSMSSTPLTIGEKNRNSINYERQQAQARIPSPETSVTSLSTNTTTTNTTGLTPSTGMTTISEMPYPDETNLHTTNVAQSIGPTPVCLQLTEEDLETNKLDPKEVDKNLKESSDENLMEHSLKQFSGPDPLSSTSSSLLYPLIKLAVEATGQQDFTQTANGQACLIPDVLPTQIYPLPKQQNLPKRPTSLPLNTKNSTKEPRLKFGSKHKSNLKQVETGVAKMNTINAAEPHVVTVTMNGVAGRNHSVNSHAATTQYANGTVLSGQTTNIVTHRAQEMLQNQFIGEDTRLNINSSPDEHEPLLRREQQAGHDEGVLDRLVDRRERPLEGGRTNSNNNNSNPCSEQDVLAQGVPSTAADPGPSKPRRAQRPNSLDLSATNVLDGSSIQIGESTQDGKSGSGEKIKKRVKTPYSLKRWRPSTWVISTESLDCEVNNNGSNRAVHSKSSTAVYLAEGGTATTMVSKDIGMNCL

[23] = target: Dual specificity tyrosine-phosphorylation-regulated kinase 1A (Homo sapiens, UniProt Q13627); assay: DYRK1A(DY1ALGP1) Takeda global kinase panel
[24] = target: Protein kinase C zeta type (Homo sapiens, UniProt Q05513); assay: PKCzeta(PRKZLGP1) Takeda global kinase panel
[25] = target: Endothelin receptor type B (Homo sapiens) (UniProt P24530); details: Compound concentration 10.0 uM
[26] = target: Serine/threonine-protein kinase OSR1 (Homo sapiens, UniProt O95747); assay: OSR1(OXS1LGY1) Takeda global kinase panel
[27] = target: High affinity nerve growth factor receptor (Homo sapiens, UniProt P04629); assay: TRKA(NTR1LGN1) Takeda global kinase panel
[28] = target: Tyrosine-protein kinase ABL2 (Homo sapiens, UniProt P42684); assay: Arg(ABL2LGF1) Takeda global kinase panel
[29] = target: Tyrosine-protein kinase Mer (Homo sapiens, UniProt Q12866); assay: Mer(MERTLGF1) Takeda global kinase panel
[30] = target: Mitogen-activated protein kinase kinase kinase 14 (Homo sapiens, UniProt Q99558); assay: NIK(M314LGP1) Takeda global kinase panel
[31] = target: Calcium/calmodulin-dependent protein kinase type 1G (Homo sapiens, UniProt Q96NX5); assay: CaMK1gamma(CA1GLGN1) Takeda global kinase panel
Chain of Calcium/calmodulin-dependent protein kinase type 1G (Q96NX5 whole entry): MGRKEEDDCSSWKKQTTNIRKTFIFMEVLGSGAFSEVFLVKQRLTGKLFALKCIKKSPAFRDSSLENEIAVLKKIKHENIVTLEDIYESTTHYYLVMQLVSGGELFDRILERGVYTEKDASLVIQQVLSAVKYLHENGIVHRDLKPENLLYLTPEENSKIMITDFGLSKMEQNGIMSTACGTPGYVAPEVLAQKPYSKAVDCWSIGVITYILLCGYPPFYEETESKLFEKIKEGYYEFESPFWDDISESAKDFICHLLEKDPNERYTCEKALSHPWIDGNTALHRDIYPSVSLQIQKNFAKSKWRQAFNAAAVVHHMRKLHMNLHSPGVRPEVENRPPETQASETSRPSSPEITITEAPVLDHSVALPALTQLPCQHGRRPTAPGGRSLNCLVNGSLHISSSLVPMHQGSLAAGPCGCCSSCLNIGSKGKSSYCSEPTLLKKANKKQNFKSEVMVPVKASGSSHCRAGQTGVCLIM

[32] = target: Calcium/calmodulin-dependent protein kinase type IV (Homo sapiens, UniProt Q16566); assay: CaMK4(CAM4LGY1) Takeda global kinase panel
[33] = target: Casein kinase I isoform gamma-2 (Homo sapiens, UniProt P78368); assay: CK1gamma2(C1G2LGI1) Takeda global kinase panel
Chain of Casein kinase I isoform gamma-2 (P78368 whole entry, canonical isoform): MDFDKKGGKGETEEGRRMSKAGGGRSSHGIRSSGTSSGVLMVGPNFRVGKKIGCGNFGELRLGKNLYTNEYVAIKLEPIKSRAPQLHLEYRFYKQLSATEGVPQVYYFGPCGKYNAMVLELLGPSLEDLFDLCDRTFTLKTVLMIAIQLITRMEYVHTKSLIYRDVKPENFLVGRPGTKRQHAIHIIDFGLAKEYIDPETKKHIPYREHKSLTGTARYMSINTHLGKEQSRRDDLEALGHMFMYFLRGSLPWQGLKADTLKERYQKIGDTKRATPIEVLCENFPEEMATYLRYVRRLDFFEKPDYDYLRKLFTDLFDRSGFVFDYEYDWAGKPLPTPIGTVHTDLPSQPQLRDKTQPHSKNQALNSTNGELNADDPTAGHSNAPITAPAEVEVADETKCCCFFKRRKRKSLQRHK

[34] = target: ATP-sensitive inward rectifier potassium channel 11 (Cricetulus griseus) (UniProt A0A3L7HHE1); assay: Inhibition of Potassium Channel [KATP] at 10 µM in the Eurofins-Panlabs radioligand binding assay (Eurofins_assay_265600); details: Cricetinae; Compound concentration 10.0 uM
Chain of ATP-sensitive inward rectifier potassium channel 11 (Cricetulus griseus) (A0A3L7HHE1 as listed by the source): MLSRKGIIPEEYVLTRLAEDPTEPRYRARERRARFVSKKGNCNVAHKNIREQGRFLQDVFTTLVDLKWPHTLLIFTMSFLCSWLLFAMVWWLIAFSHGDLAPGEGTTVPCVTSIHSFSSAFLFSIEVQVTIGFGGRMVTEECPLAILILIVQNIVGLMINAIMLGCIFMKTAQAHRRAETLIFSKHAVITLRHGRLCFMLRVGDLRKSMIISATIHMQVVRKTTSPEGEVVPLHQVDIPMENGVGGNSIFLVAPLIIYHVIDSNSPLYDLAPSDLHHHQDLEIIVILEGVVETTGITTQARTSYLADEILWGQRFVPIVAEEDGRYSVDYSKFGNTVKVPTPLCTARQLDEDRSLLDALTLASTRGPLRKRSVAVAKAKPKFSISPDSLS

[35] = target: Tyrosine-protein kinase BTK (Homo sapiens, UniProt Q06187); assay: BTK(BTK1CGF1) Takeda global kinase panel
Chain of Tyrosine-protein kinase BTK (Q06187 whole entry): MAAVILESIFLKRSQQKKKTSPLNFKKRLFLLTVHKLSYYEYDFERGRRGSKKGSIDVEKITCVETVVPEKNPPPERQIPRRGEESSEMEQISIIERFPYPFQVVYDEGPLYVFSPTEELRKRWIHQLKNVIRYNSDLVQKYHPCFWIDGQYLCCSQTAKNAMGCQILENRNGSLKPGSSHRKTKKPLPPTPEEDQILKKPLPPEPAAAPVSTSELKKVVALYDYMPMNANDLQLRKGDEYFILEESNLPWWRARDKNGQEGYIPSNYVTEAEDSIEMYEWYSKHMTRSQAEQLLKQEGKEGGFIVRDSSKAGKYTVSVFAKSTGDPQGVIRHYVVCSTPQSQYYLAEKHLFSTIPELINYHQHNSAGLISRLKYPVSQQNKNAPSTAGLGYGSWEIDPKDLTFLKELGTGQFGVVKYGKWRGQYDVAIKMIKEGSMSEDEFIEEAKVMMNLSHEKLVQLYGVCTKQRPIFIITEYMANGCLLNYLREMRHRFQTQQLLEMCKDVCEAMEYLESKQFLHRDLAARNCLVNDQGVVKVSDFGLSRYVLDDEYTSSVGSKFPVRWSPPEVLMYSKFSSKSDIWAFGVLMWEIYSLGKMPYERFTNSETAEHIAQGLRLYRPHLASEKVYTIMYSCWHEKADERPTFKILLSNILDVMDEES

[36] = target: Serine/threonine-protein kinase Nek11 (Homo sapiens, UniProt Q8NG66); assay: Nek11(NE11LGRI) Takeda global kinase panel

Chain of Rhodopsin kinase GRK1 (Q15835 whole entry): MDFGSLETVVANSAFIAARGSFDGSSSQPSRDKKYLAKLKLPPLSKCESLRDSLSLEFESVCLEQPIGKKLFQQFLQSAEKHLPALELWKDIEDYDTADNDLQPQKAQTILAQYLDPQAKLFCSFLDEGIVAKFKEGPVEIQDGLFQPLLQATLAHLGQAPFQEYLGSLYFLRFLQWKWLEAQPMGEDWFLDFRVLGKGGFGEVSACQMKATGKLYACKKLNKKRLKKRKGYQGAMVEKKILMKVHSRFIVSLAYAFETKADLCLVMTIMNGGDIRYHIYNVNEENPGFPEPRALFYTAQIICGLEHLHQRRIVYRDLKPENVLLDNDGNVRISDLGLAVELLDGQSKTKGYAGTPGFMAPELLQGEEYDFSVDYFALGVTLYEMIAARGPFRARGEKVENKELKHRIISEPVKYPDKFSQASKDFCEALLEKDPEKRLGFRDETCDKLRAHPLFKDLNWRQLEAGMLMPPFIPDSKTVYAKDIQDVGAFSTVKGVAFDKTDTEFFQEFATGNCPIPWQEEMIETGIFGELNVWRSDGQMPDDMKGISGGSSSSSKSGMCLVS

Structure (SMILES)	pIC50 [1]	pIC50 (Rhodopsin kinase GRK1)	pIC50 [2]	pIC50 [3]	pIC50 [4]	pIC50 [5]	pIC50 [6]	pIC50 [7]	pIC50 [8]	pIC50 [9]	pIC50 [10]	inhibition [11] [%]	inhibition [12] [%]	inhibition [13] [%]	pIC50 (Myosin-IIIb)	pIC50 [14]	pIC50 [15]	pIC50 [16]	pIC50 [17]	inhibition [18] [%]	other results
CN1C(=O)[C@@H](N2CCc3cn(Cc4ccccc4)nc3C2=O)COc2ccccc21 [TP-030-1]	6.00	6.00	6.00	6.00	6.00	6.00	6.00	6.00	6.00	6.00	6.00	6	-6	15	6.00	6.00	6.00	6.00	6.00	2	pIC50 (SRSF protein kinase 1): 6.00; pIC50 [19]: 6.00; pIC50 [20]: 6.00; inhibition [21]: -2%; pIC50 [22]: 6.00; pIC50 [23]: 6.00; pIC50 [24]: 6.00; inhibition [25]: 0%; pIC50 [26]: 6.00; pIC50 [27]: 6.00; pIC50 [28]: 6.00; pIC50 [29]: 6.00; pIC50 [30]: 6.00; pIC50 [31]: 6.00; pIC50 [32]: 6.00; pIC50 [33]: 6.00; inhibition [34]: 6%; pIC50 [35]: 6.00; pIC50 [36]: 6.00
CN1C(=O)[C@@H](N2CCc3cn(CC4CCS(=O)(=O)CC4)nc3C2=O)COc2ccccc21 [TP-030n]	6.00	6.00	6.00	6.00	6.00	6.00	6.00	6.00	6.00	6.00	6.00	-2	3	0	6.00	6.00	6.00	6.00	6.00	1	pIC50 (SRSF protein kinase 1): 6.00; pIC50 [19]: 6.00; pIC50 [20]: 6.00; inhibition [21]: 2%; pIC50 [22]: 6.00; pIC50 [23]: 6.00; pIC50 [24]: 6.00; inhibition [25]: -3%; pIC50 [26]: 6.00; pIC50 [27]: 6.00; pIC50 [28]: 6.00; pIC50 [29]: 6.00; pIC50 [30]: 6.00; pIC50 [31]: 6.00; pIC50 [32]: 6.00; pIC50 [33]: 6.00; inhibition [34]: 5%; pIC50 [35]: 6.00; pIC50 [36]: 6.00
